Results on 19 compounds are retold here after publication PMC12371494, “Discovery of YTHDF2 Ligands by Fragment-Based Design” (ACS Bio & Med Chem Au, 2025).

Read-outs that look alike come from different tables or passages of the source.

The target of one experiment is YTHDC1 (Homo sapiens, UniProt Q96MU7). Kind of experiment: DNA-fluorescence polarization (FP) competition assay, DC1. As to conditions: for Selectivity DF2 over DC1 (Kd ratio DC1/DF2): FP Kd values. It counts as binding. As for the experimental part:
The binding affinity for DC1 could not be evaluated by HTRF because of interference of the compounds with the assay, which has a smaller assay window when performed with DC1 compared to the DF proteins. Thus, the FP assay was used to evaluate binding to DC1 and DC2.
(§1) For fluorescence polarization (FP) experiments, a 5′-fluorescein-labeled m^6A-DNA probe (5′-FAM-[…](m6A)-CTAAGCT-3′) was synthesized by Microsynth AG.
(§2) The final concentration of the fluorescein-labeled DNA was kept constant at 3 nM. For YTHDC2 measurements, the protein concentration was set to 25 nM, while for YTHDF2 measurements, it was set to 10 nM, and for YTHDC1, it was set at 15 nM. The compound concentration was serially diluted to obtain the dose–response curve. The competition experiments were conducted in a final volume of 20 μL in a buffer containing 20 mM Tris–HCl (pH 7.4), 150 mM NaCl, and 0.01% bovine serum albumin (BSA), using a 384-well black flat-bottomed microplate (Corning 3575).
(§3) After incubating the mixture for 1 h, the anisotropy values were measured using a Tecan SPARK plate reader with 485/20 nm excitation and 535/25 nm emission polarization filters, suitable for fluorescein, at 25 °C. To obtain the equilibrium dissociation constant (K d), the IC50 values were first derived by fitting a dose–response curve to the data using nonlinear regression analysis in GraphPad Prism. These IC50 values were then converted to K d by using the Cheng–Prusoff equation: Kd=IC50/1+[L]/Kdprobe
(§4) IC50 is the observed value from FP assay, [L] is the probe concentration used, and K d ^probe is the binding affinity of probe for the target.

The target in another experiment is T1, GST-YTHDF1 (Homo sapiens, UniProt Q9BYJ9).
T1 construct: made in house
T1 sequence (Q9BYJ9 1-559): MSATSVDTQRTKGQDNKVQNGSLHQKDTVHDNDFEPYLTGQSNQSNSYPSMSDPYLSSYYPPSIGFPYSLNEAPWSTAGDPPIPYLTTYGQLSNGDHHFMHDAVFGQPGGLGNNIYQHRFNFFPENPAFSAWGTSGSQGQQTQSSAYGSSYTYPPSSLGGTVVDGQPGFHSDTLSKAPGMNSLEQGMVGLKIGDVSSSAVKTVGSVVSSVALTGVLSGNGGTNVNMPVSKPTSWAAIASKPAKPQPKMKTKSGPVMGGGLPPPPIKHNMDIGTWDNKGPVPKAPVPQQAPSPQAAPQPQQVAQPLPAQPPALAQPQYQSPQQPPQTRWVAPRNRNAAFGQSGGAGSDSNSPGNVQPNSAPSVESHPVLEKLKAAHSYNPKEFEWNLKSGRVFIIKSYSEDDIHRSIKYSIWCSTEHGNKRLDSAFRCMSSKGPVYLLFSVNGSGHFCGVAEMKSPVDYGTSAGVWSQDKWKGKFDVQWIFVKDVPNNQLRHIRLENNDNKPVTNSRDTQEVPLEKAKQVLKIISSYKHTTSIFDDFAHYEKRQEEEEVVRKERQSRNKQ
Kind of experiment: HTRF-based binding assay, DF1. Conditions: for Single-dose residual signal at 100 µM, DF1: 100 µM compound, normalized; for IC50: dose-response. As for the experimental part:
The HTRF-based assay was employed to evaluate the selectivity of the series against other DF proteins.
A dose–response experiment on DF1 and DF3 was conducted for compounds 17, 18, 23, and 27 (Figure S5). Compounds 17, 18, and 27 are active on three DF proteins. […] In contrast, compound 23 is selective for DF2, with residual signals (at the highest employed concentration of 62.5 μM) of 51 and 87% for DF1 and DF3, respectively.
GST-YTHDC1, GST-YTHDF1, GST-YTHDF2, and GST-YTHDF3 were purified as previously reported. The HTRF assay was assembled as detailed in ref with the only difference being that the starting concentration of the dose–response experiments used for the IC50 determination was variated dependently from the tested compound. The same protocol was applied to the four proteins. The competitive inhibition data of GST-YTHDF1 (single dose experiment at 100 μM compound concentration and dose–response curves), GST-YTHDF3 (single dose experiment at 100 μM compound concentration and dose–response curves), and GST-YTHDF2 (single dose experiment at 100 μM compound concentration) were normalized as described in ref to mitigate interference. The signal was measured as described in ref .
Background: TR-FRET usually uses a lanthanide donor and a delayed reading to cut background.

A further experiment has as its target T2, YTHDF2 (Homo sapiens, UniProt Q9Y5A9).
T2 sequence (Q9Y5A9 1-579): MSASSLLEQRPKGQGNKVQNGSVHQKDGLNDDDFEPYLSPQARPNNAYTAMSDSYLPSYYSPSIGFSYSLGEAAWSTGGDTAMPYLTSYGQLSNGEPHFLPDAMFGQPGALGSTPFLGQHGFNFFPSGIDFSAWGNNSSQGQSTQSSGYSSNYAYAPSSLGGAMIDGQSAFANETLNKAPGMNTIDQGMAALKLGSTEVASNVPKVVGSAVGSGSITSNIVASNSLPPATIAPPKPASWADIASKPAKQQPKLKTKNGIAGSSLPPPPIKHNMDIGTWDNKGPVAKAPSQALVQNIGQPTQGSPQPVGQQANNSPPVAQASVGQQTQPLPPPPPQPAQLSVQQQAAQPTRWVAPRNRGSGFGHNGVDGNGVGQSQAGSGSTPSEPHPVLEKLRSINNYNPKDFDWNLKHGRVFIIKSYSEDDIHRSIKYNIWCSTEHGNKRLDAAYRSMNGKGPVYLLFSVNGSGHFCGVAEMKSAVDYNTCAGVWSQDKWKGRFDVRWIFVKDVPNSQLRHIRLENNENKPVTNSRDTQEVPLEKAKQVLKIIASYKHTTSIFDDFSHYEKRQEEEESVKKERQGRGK
Kind of experiment: DNA-fluorescence polarization (FP) competition assay, DF2. It counts as binding. As for the experimental part: An FP competition assay was used to further validate the binding of the compounds to DF2. The main difference with respect to a previously published FP assay is the use of an oligo-DNA as competitor ligand (see Materials and Methods section). […] These differences might originate from the varying conditions in the two assays, such as the competitor mRNA (5′-biotin-[…](m6A)-CUAAGCU-3′) in HTRF and DNA (5′-FAM-[…](m6A)-CTAAGCT-3′) in FP, the salt concentration (150 mM NaCl and 100 mM KF in HTRF, and 150 mM NaCl in FP), and the pH (7.5 in HTRF and 7.4 in FP). The FP-based assay was also employed to assess the selectivity against DC1 and DC2 (see Selectivity section).
as §1, §2, §3, §4

[1] abbreviates: Cheng-Prusoff from FP IC50, probe Kd 5 nM, two biological replicates.

For the compound `O=c1[nH]c(=S)[nH]c2sccc12` [Compound 14], at YTHDC1, binding was characterised by a dissociation constant (Kd) of 32 µM and the “Selectivity DF2 over DC1 (Kd ratio DC1/DF2)” value was about 8 fold. At GST-YTHDF1 (HTRF), the “Single-dose residual signal at 100 µM, DF1” value (from here on “Single-dose residual signal”) is 15%. Besides, the Kd (commonly the equilibrium constant for the complex coming apart) at YTHDF2 was 3.8 µM.
Consider `COC(=O)c1ccc(-c2csc3[nH]c(=S)[nH]c(=O)c23)cc1` [Compound 17], for which the results for the Kd at YTHDC1 and on YTHDF2 were 5 µM and 1.2 µM, respectively. The “Single-dose residual signal” value at GST-YTHDF1 (HTRF) was found to be 7%. At GST-YTHDF1, the IC50 (as a rule, the concentration that inhibits the measured activity by half) is 10 µM.
With `O=C(O)c1ccc(-c2csc3[nH]c(=S)[nH]c(=O)c23)cc1` [Compound 18], the Kd on YTHDC1 is 6.9 µM; on YTHDF2, 0.61 µM. The “Single-dose residual signal” value at GST-YTHDF1 (HTRF) amounted to 3%. The compound also registered an IC50 at GST-YTHDF1 of 11 µM.
For `O=c1[nH]c(=S)[nH]c2scc(-c3ccc(O)cc3)c12` [Compound 19], the figures for the Kd on YTHDC1 and at YTHDF2 were 27 µM and 1.3 µM, respectively. The “Single-dose residual signal” value on GST-YTHDF1 (HTRF) was 8%. Besides, at YTHDF2 (FP IC50 before conversion (Kd = IC50/1.6)), the IC50 was 2 µM.
For the compound `CC(=O)c1sc2[nH]c(=S)[nH]c(=O)c2c1C` [Compound 20], the Kd at YTHDC1 is 47 µM; on YTHDF2, 3.1 µM. Further, on GST-YTHDF1 (HTRF), the “Single-dose residual signal” value is 8%.
The like results for `CCOC(=O)c1sc2[nH]c(=S)[nH]c(=O)c2c1C` [Compound 21] were, in that order, 36 µM, 4.4 µM and 12%.
Turning to `Cc1c(C(=O)NCc2ccccc2)sc2[nH]c(=S)[nH]c(=O)c12` [Compound 22], the Kd turned out to be 92 µM at YTHDC1 and 10 µM at YTHDF2. For the same compound, the “Single-dose residual signal” value on GST-YTHDF1 (HTRF) is given as 17%.
On to `Cc1c(C(=O)NCc2cccnc2)sc2[nH]c(=S)[nH]c(=O)c12` [Compound 23], for which, on YTHDC1, the Kd was determined as 120 µM and the “Selectivity DF2 over DC1 (Kd ratio DC1/DF2)” value is given as about 100 fold. In addition, at GST-YTHDF1 (HTRF, 62.5 μM compound), the “Residual signal DF1 at highest concentration” value turned out to be 51%. Further, on GST-YTHDF1 (HTRF), the “Single-dose residual signal” value was 20%. The IC50 at GST-YTHDF1 was over 60 µM. On YTHDF2, this compound returned a Kd of 1.3 µM.
Turning to `Cc1c(C(=O)NCc2cccc(C(=O)O)c2)sc2[nH]c(=S)[nH]c(=O)c12` [Compound 24], the Kd on YTHDC1 came out at 24 µM; on YTHDF2, 2.5 µM. The “Single-dose residual signal” value at GST-YTHDF1 (HTRF) is recorded as 5%.
The like results for `Cc1c(C(=O)NCCCC(=O)O)sc2[nH]c(=S)[nH]c(=O)c12` [Compound 25] were, in that order, 32 µM, 1.3 µM and 6%.
The like results for `Cc1c(-c2ccc([N+](=O)[O-])cc2)sc2[nH]c(=S)[nH]c(=O)c12` [Compound 26] were, in that order, 61 µM, 17 µM and 12%.
Consider `Cc1c(-c2ccc(N)cc2)sc2[nH]c(=S)[nH]c(=O)c12` [Compound 27], for which the dissociation constant (Kd) at YTHDC1 turned out to be 14 µM; on YTHDF2, 1.9 µM. The “Single-dose residual signal” value on GST-YTHDF1 (HTRF) is given as 6%. At GST-YTHDF1, this compound gave an IC50 of 13 µM.
Take `NC(=O)c1csc2[nH]c(=S)[nH]c(=O)c12` [Compound 31]: the results for the Kd on YTHDC1 and at YTHDF2 were 40 µM and 1.9 µM, respectively. Besides, the “Single-dose residual signal” value at GST-YTHDF1 (HTRF) is 27%.
With `O=c1[nH]c(=S)[nH]c2scc(-c3ccc(Br)cc3)c12` [Compound S75], the “Single-dose residual signal” value on GST-YTHDF1 (HTRF) is reported as 9%. The compound also came in with a Kd on YTHDF2 (setting [1]) of 8.8 µM.
In the same order, the values of `COc1ccc(-c2csc3[nH]c(=S)[nH]c(=O)c23)cc1` [Compound S76] are 12% and 11 µM.
Take `O=c1[nH]c(=S)[nH]c2scc(C3CCCCC3)c12` [Compound S77]: the “Single-dose residual signal” value on GST-YTHDF1 (HTRF) is listed as 32%. Further, the Kd on YTHDF2 (setting [1]) was 5.6 µM.
In the same order, the values of `O=c1[nH]c(=S)[nH]c2sc(Cc3ccccc3)cc12` [Compound S85] are 34% and 6.2 µM.
For `CCOC(=O)c1csc2[nH]c(=S)[nH]c(=O)c12` [Compound S89], on GST-YTHDF1 (HTRF), the “Single-dose residual signal” value came out at 16%. Binding on YTHDF2 (setting [1]) was put at a Kd of 7.5 µM.
The like results for `O=C(O)c1csc2[nH]c(=S)[nH]c(=O)c12` [Compound S90] were, in that order, 36% and 10 µM.
